Patent publication US7973024B2, “24-sulfoximine vitamin D3 compounds” (Cyctochroma Inc., priority 2002, dated 2011)

How the values were obtained:
CYP24 [1] = target: T1, CYP24 (Homo sapiens, UniProt Q07973); test: CYP24 enzyme assay (stable cell line V79-CYP24 cells); assay type: cell-based; conditions: [3H-1β]-1α,25(OH)2D3 20 nM, 2 hours
T1 construct: expressed in transfected cells
T1 sequence (Q07973 36-514): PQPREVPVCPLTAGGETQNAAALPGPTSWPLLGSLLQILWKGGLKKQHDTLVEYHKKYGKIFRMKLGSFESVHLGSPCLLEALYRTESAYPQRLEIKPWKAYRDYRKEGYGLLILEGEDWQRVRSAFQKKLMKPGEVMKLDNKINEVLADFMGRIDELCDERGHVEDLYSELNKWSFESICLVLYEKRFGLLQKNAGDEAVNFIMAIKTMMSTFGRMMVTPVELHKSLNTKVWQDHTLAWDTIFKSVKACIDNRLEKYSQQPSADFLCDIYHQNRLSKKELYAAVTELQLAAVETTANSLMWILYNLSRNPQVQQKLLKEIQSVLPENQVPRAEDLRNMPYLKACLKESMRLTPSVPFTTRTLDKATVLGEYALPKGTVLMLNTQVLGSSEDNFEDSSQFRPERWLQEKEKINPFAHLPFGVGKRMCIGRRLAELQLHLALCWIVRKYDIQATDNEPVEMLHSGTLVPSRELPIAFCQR
Protocol: 1. Preparation of Cell Suspension • On the day of the assay, washed the monolayer of V79-CYP24 cells once with 1×PBS buffer and then trypsinize for 5 min at room temperature (approx. 22° C.). Added 1×PBS. Collected cells into tube, centrifuged cells (500×g, 5 min) and resuspended in DMEM+1% BSA media.
2. Cell Plating • Added 150 μl of cell suspension to appropriately labelled wells of a 48-well plate. Incubated plate for 30 minutes at 37° C. in a humidified atmosphere containing 5% CO2 for adherence of cells to wells.
3. Compound Addition • Added 25 μl of inhibitor (10^−6 to 10^−9 M) and then after 10 min added 25 μl of substrate [^3H-1β]-1α,25(OH)2D3 (20 nM) for 2 hours at 37° C. in a humidified atmosphere containing 5% CO2. Both inhibitor and substrate were prepared in DMEM with 1% BSA media in the absence and presence of 100 μM DPPD.
4. Lipid Extraction and Counting • Added 500 μL of methanol to stop the reaction. Transferred to tube. Added 250 μl of dichloromethane and vortexed. Added 250 μl of dichloromethane and 250 μl of saturated KCL and vortexed. Centrifuged at 4000 rpm for 5 min. Triplicate 100 μl aliquots of aqueous fraction were mixed with 600 μl of scintillation fluid and the radioactivity was measured using a scintillation counter. All values were normalized for background. (iii) Results.

CYP24 [2] = target: T1, CYP24; test: In vitro test of ability to inhibit specifically CYP24 (standard protocol); assay type: cell-based; conditions: ketoconazole as control standard
SCC-25 cells = test: [3H]-thymidine proliferation assay with SCC-25 cells; assay type: cell-based; conditions: together with calcitriol, three days, [3H]-thymidine 6 h
Protocol: 1. Preparation of Cell Suspension • When SCC-25 cells were 70-80% confluent, aspirated media. Washed the cells with 1×PBS. Trypsinized with trypsin-EDTA from the plate, collected cells from the tissue culture flask, centrifuged (500×g, 5 min) and resuspended in media.
2. Cell Plating. • Counted the cells and adjusted the cell density to 10,000/ml. Added 200 μl per well in a 96 well plate. Incubated plate for 24 h at 37° C. in a humidified atmosphere plus 5% CO2. Aspirated used media and replaced with 150 μl per well with media.
3. Compound Addition. • Added 25 μl of 1α,25(OH)2D3 (final concentration 10^−6M, 10^−7 M, 10^−8 M, M, 10^−10 M, 10^−11 M) into each designated well. Added 25 μl of substrate (final concentration 10^−7 M, 5×10^−8 M, 10^−8 M or 10^−9 M) into each designated well. Incubated plates for 3 days at 37° C. in a humidified atmosphere plus 5% CO2.
4. ^3H-Thymidine Incorporation. • Added ^3H-thymidine at 0.02 μCi per well and incubated at 37° C. in a humidified atmosphere plus 5% CO2 for 6 h.
(§1) 5. Plate Harvesting. • Aspirated all media and washed cells with 1×PBS. Trypsinized cells for 30 min at 37° C. in a humidified atmosphere plus 5% CO2. Harvested cells onto a 96 well filter plate (Millipore) using a Tomtec Cell Harvestor, according to manufacturers instructions.
(§2) 6. Scintillation Counting. • Added 25 μl of scintillation fluid per well. Counted the plate using a scintillation counter.

VDR = target: T2, VDR (Homo sapiens, UniProt P11473); test: VDR binding assay; conditions: B50: displacement of 50 percent [3H]-1,25(OH)2D3 from human recombinant VDR
T2 construct: purchased Biomol
T2 sequence (P11473 1-427): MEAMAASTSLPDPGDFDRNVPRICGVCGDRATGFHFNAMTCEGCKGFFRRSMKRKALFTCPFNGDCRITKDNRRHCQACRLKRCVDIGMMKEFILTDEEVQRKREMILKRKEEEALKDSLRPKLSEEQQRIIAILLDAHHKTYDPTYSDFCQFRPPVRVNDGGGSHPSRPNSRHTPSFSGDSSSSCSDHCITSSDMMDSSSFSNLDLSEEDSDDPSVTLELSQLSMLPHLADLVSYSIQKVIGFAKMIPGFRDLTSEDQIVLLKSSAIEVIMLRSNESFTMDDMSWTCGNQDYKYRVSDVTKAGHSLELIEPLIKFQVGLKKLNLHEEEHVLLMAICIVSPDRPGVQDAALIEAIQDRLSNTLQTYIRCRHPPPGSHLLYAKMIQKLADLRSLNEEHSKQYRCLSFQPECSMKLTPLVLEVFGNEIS
Protocol: 1. VDR 9.4 pmol/μl (human, recombinant, Biomol).
4. TEK300 • Tris-HCI 50 mM • EDTA 1.5 mM • KCI 300 mM Adjust pH to 7.4 (25° C.)
3. Preparation of 1.25(OH)2D3 and test compounds in ethanol
1 μl stock VDR in 2.5 ml TEDK300/Gelatin solution (500 μl/tube), (keep on ice)
• Label tubes according to the following chart, each in triplicate:
• Mixed all tubes via vortex and incubated at room temperature for 1 hour. Added 10 μL of 3H-1,25(OH)2D3 Working Dilution, mixed by vortex and incubated at room temperature for 1 hour 2. Sample processing • Thirty minutes before addition, put Charcoal/Dextran Solution on ice with continuous mixing. Added […] of Charcoal/Dextran Solution to each tube, mixed well and incubated on ice for 30 minutes. Centrifuged @ 2000 rpm for 10 minutes at 4° C. 3. Counting • Pipetted 100 μL of the upper, aqueous phase to a 24 well scintillation counting plate and added 600 μL scintillation fluid per well, covered and mixed well. Counted the plate using a scintillation counter for 5 min/sample. (iv) Calculations: • The amount of 1,25(OH)2D3 to displace 50 percent [^3H]-1,25(OH)2D3 from VDR was calculated as B50 for 1,25(OH)2D3. The VDR binding of other compounds was calculated as B50 relative to a value of 1 for 1,25(OH)2D3.

[3] = tested on: normal human epidermal keratinocytes (NHEK); test: Human epidermal keratinocyte proliferation assay; assay type: cell-based; conditions: together with calcitriol, three days, [3H]-thymidine 18 h
Protocol: 1. HEK Cell Media • Supplemented KGM media with additional reagents provided in the bullet kit as per supplier's instructions. • Added calcium chloride to final concentration of 0.3 mM.
2. Calcitriol Dilutions • Stock: Calcitriol (1 mM)
3. Substrate Dilutions • Stock: substrate (0.1 mM)
1. Cell Culture • Thawed one vial of HEK cells containing at least 500 K, and divided into 5 25 cm^2 flasks with 5 ml HEK cell media. 24 h later, removed media and replenished with 5 ml fresh media. Changed media again 48 h later.
2. Preparation of Cell Suspension • On the day of the assay, washed the monolayer of HEK cells once with 1×PBS buffer (provided in reagent pack) and then trypsinized for 5 min at 37° C. Added trypsin neutralizing solution (provided in reagent pack). Collected cells into tube, centrifuged cells (500×g, 5 min) and resuspended in HEK cell media. Counted cells and adjusted density to 150,000 cells/ml. Diluted cells further 1:30 with HEK cell media.
2. Cell Plating • Added 150 μl of cell suspension to appropriately labelled wells of a 96-well plate. Incubated plate for 48 h at 37° C. in a humidified atmosphere containing 5% CO2 for adherence of cells to wells.
3. […]
4. Cell Harvesting and Counting • Added 0.2 μCi/well of [^3H]-thymidine in 20 μl of HEK cell media to each well. Incubated plates for 18 h at 37° C. in a humidified atmosphere containing 5% CO2. Aspirated media and washed with 1×PBS. Trypsinize-cells for 30 min at 37° C. in a humidified atmosphere containing 5% CO2. Harvested cells onto filter plates using Tomtec cell harvester as per manufacturer's instructions. Added 25 μl scintillation fluid per well. Measured radioactivity using a scintillation counter. All values were normalized for background.

MCF-7 cells = test: [3H]-thymidine proliferation assay with MCF-7 cells; assay type: cell-based; conditions: together with calcitriol, three days, [3H]-thymidine 6 h
Protocol: 1. Preparation of Cell Suspension • When MCF-7 cells were 70-80% confluent, aspirated growth media. Washed the cells with 1×PBS. Trypsinized with trypsin-EDTA from the plate, collected cells from the tissue culture flask, centrifuged (500×g, 5 min) and resuspended in growth media.
2. Cell Plating. • Counted the cells and adjusted the cell density to 25,000/ml. Added 200 μl per well in a 96 well plate. Incubated plate for 24 h at 37° C. in a humidified atmosphere plus 5% CO2. Aspirated used media and replaced with 150 μl per well with proliferation media.
3. Substrate Addition. • Added 25 μl of 1α,25(OH)2D3 (final concentration 10^−6 M, 10^−7 M, 10^−8 M, 10^−9 M, 10^−10 M, 10^−11 M) into each designated well. Added 25 μl of substrate (final concentration 10^−7 M, 5×10^−8 M, 10^−8 M or 10^−9 M) into each designated well. Incubated plates for 3 days at 37° C. in a humidified atmosphere plus 5% CO2.
4. ^3H-Thymidine incorporation. • Added ^3H-thymidine at 0.02 μCi per well and incubated at 37° C. in a humidified atmosphere plus 5% CO2 for 6 h.
as §1, §2

Structure (SMILES) | IC50 (CYP24 [1]) [nM] | selective inhibition of CYP24 (CYP24 [2]) | inhibition of proliferation of SCC-25 cells (SCC-25 cells) | IC50 (VDR) [nM] | inhibition of proliferation of normal human epidermal keratinocytes (NHEK) [3] | inhibition of proliferation of MCF-7 cells (MCF-7 cells)
C[C@H](CCS(=N)(=O)c1ccccc1)[C@H]1CC[C@H]2/C(=C/C=C3C[C@@H](O)C[C@H](O)C3)CCC[C@]12C (single isomer, unassigned) [I(j), 24 Phenyl Sulfoximine 19-Nor-Vitamin-D3] | 27 | selectively inhibit | act to inhibit the proliferation |  |  | 
CN=S(=O)(CC[C@@H](C)[C@H]1CC[C@H]2/C(=C/C=C3C[C@@H](O)C[C@H](O)C3)CCC[C@]12C)c1ccccc1 (single isomer, unassigned) [I(k), 24-Phenyl N-Methyl Sulfoximine 19-Nor-Vitamin-D3] | 300 | selectively inhibit |  | > 2000 |  | 
CN=S(=O)(CC[C@@H](C)[C@H]1CC[C@H]2/C(=C/C=C3C[C@@H](O)C[C@H](O)C3)CCC[C@]12C)c1ccccc1 (single isomer, unassigned) [I(l), 24-Phenyl N-Methyl Sulfoximine 19-Nor-Vitamin-D3] | 42 | selectively inhibit | act to inhibit the proliferation |  |  | 
C=C1/C(=C\C=C2/CCC[C@]3(C)[C@@H]([C@H](C)CC4(S(=N)(=O)c5ccccc5)CC4)CC[C@@H]23)C[C@@H](O)C[C@@H]1O (single isomer, unassigned) [I(n)] | 23 | selectively inhibit | act to inhibit the proliferation |  | act to inhibit the proliferation | act to inhibit the proliferation
C=C1/C(=C\C=C2/CCC[C@]3(C)[C@@H]([C@H](C)CC4(S(=N)(=O)c5ccccc5)CC4)CC[C@@H]23)C[C@@H](O)C[C@@H]1O (single isomer, unassigned) [I(o)] | 20 | selectively inhibit | act to inhibit the proliferation |  | act to inhibit the proliferation | 
C=C1/C(=C\C=C2/CCC[C@]3(C)[C@@H]([C@H](C)CCS(=N)(=O)c4ccc(F)cc4)CC[C@@H]23)C[C@@H](O)C[C@@H]1O (single isomer, unassigned) [I(p)] | 42 | selectively inhibit |  |  |  | 
C=C1/C(=C\C=C2/CCC[C@]3(C)[C@@H]([C@H](C)CCS(=N)(=O)c4ccc(F)cc4)CC[C@@H]23)C[C@@H](O)C[C@@H]1O (single isomer, unassigned) [I(q)] | 78 | selectively inhibit |  |  |  | 
C=C1CC[C@H](O)C/C1=C/C=C1\CCC[C@]2(C)[C@@H]([C@H](C)CCS(=N)(=O)c3ccccc3)CC[C@@H]12 (stereo partly shown) [I(m), 24-Phenyl Sulfoximine 1-Nor Vitamin-D3] | 120 | selectively inhibit |  | > 2000 |  | 
C=C1/C(=C\C=C2/CCC[C@]3(C)[C@@H]([C@H](C)/C=C/S(=N)(=O)c4ccccc4)CC[C@@H]23)C[C@@H](O)C[C@@H]1O (stereo partly shown) [I(r)] |  | selectively inhibit |  |  |  | 
C=C1/C(=C\C=C2/CCC[C@]3(C)[C@@H]([C@@H](C)/C=C/S(=N)(=O)c4ccccc4)CC[C@@H]23)C[C@@H](O)C[C@@H]1O (stereo partly shown) [I(s)] | 580 | selectively inhibit |  |  |  | 
